Test results: ChEMBL document CHEMBL1201862, “PubChem BioAssay data set” (2004)
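Following 48 hours of exposure in 96-well plates, responses at five concentrations were used to interpolate endpoints linearly. GI50: concentration for 50% inhibition of growth.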 The source made the active and inactive calls. Cut-off read from the data, not from the text of the source: active = GI50 up to about 1.1 µM and inactive = higher.

How the values were obtained:
Test in all cases: NCI-60 cell line screen, 48 h
ACHN = system: ACHN
CCRF-CEM = system: CCRF-CEM
COLO 205 = system: COLO 205
DMS-273 = system: DMS-273
IGROV-1 = system: IGROV-1
LOX IMVI = system: LOX IMVI
NCI-H460 = system: NCI-H460
OVCAR-8 = system: OVCAR-8
RPMI-8226 = system: RPMI-8226
SF-268 = system: SF-268
UACC-62 = system: UACC-62
UO-31 = system: UO-31
XF498 = system: XF498
HCC 2998 = system: HCC 2998
Malme-3M = system: Malme-3M
NCI-H226 = system: NCI-H226
OVCAR-5 = system: OVCAR-5
SNB-75 = system: SNB-75
KM12 = system: KM12
MDA-MB-435 = system: MDA-MB-435

Compound	GI50 (ACHN)	GI50 (CCRF-CEM)	GI50 (COLO 205)	GI50 (DMS-273)	GI50 (IGROV-1)	GI50 (LOX IMVI)	GI50 (NCI-H460)	GI50 (OVCAR-8)	GI50 (RPMI-8226)	GI50 (SF-268)	GI50 (UACC-62)	GI50 (UO-31)	GI50 (XF498)	GI50 (HCC 2998)	GI50 (Malme-3M)	GI50 (NCI-H226)	GI50 (OVCAR-5)	GI50 (SNB-75)	GI50 (KM12)	GI50 (MDA-MB-435)
Cn1nc(-c2ccccc2)c(C(=O)/C=C/c2ccc(F)cc2)c(N2CCOCC2)c1=O	22.5 µM (inactive)	17.7 µM (inactive)	18.2 µM (inactive)	19.1 µM (inactive)	20.3 µM (inactive)	21.1 µM (inactive)	24.4 µM (inactive)	22.5 µM (inactive)	4.57 µM (inactive)	19.1 µM (inactive)	18.1 µM (inactive)	12.9 µM (inactive)	19.8 µM (inactive)							
N#Cc1c2c(c(Cl)n3c1nc1ccccc13)CCCC2	3.56 µM (inactive)		5.12 µM (inactive)	1.09 µM (active)	2.69 µM (inactive)	1.9 µM (inactive)	1.69 µM (inactive)	2.57 µM (inactive)	1.7 µM (inactive)	2.58 µM (inactive)		3.06 µM (inactive)	2.14 µM (inactive)	16.4 µM (inactive)	13.2 µM (inactive)	1.74 µM (inactive)	18.4 µM (inactive)	17.2 µM (inactive)		
CCOC(=O)C1=C(C)NC(=S)NC1c1ccccc1 (centres undefined)	> 100 µM (inactive)	> 45.1 µM (inactive)	> 45 µM (inactive)	> 100 µM (inactive)	> 100 µM (inactive)	> 63.7 µM (inactive)	> 59.3 µM (inactive)	> 100 µM (inactive)	33.9 µM (inactive)	> 100 µM (inactive)	> 71.3 µM (inactive)	35.9 µM (inactive)	> 39.4 µM (inactive)	> 100 µM (inactive)	> 100 µM (inactive)	> 100 µM (inactive)	> 100 µM (inactive)	> 100 µM (inactive)	> 100 µM (inactive)	
Cc1ccc(C(=O)/C=C2\Nc3c(c(=O)oc4ccccc34)N=C2NC23CC4CC(CC(C4)C2)C3)cc1	> 100 µM (inactive)	> 100 µM (inactive)	> 100 µM (inactive)	> 100 µM (inactive)	> 100 µM (inactive)	> 100 µM (inactive)	> 100 µM (inactive)	> 100 µM (inactive)	> 100 µM (inactive)	> 100 µM (inactive)	> 100 µM (inactive)	> 100 µM (inactive)	> 100 µM (inactive)	> 100 µM (inactive)	> 100 µM (inactive)	> 100 µM (inactive)	> 100 µM (inactive)	28.6 µM (inactive)	> 100 µM (inactive)	
CN(C)CCNC(=O)c1ccc(Cl)c2c(Nc3ccc(S(=O)(=O)N=C(N)N)cc3)c3ccccc3nc12	4.22 µM (inactive)	1.69 µM (inactive)	3.78 µM (inactive)	1.79 µM (inactive)	3.55 µM (inactive)	1.75 µM (inactive)	1.63 µM (inactive)	2.24 µM (inactive)		3.48 µM (inactive)	5.42 µM (inactive)	0.349 µM (active)	4.51 µM (inactive)	8.17 µM (inactive)		2.08 µM (inactive)	> 10 µM (inactive)	> 10 µM (inactive)	4.21 µM (inactive)	
CCc1cccc(=O)c([O-])c1.CCc1cccc(=O)c([O-])c1.[Bi+3].[Cl-]	8.17 µM (inactive)	1.91 µM (inactive)	2.29 µM (inactive)	7.53 µM (inactive)	6.78 µM (inactive)	7.53 µM (inactive)	6.49 µM (inactive)	2.96 µM (inactive)		5.21 µM (inactive)	9.98 µM (inactive)	10 µM (inactive)	2.38 µM (inactive)	5.93 µM (inactive)	1.79 µM (inactive)	23.2 µM (inactive)	16.5 µM (inactive)	17.6 µM (inactive)	12.4 µM (inactive)	
O=C1c2cccc3cccc(c23)C(=O)N1CCN(CCO)CCO	23.9 µM (inactive)	30.3 µM (inactive)	15.6 µM (inactive)	22.8 µM (inactive)	32.7 µM (inactive)	18 µM (inactive)	23.4 µM (inactive)	16.3 µM (inactive)	12.9 µM (inactive)	35.6 µM (inactive)	20.6 µM (inactive)	30.5 µM (inactive)	28.5 µM (inactive)	26.2 µM (inactive)	21.2 µM (inactive)	16 µM (inactive)	20.9 µM (inactive)	30.1 µM (inactive)	29.5 µM (inactive)	
Cc1c(C(=O)O)oc2ccc([N+](=O)[O-])cc12	> 100 µM (inactive)	> 100 µM (inactive)	> 100 µM (inactive)	> 100 µM (inactive)	> 100 µM (inactive)	> 100 µM (inactive)	> 100 µM (inactive)	> 100 µM (inactive)	> 10 µM (inactive)	> 100 µM (inactive)	> 100 µM (inactive)	> 100 µM (inactive)	> 100 µM (inactive)	> 100 µM (inactive)	> 100 µM (inactive)		> 100 µM (inactive)		> 100 µM (inactive)	
CN1C(=O)CCC2[C@@H]3CC=C4C[C@@H](O)CC[C@]4(C)C3CC[C@@]21C (some centres undefined)	42.4 µM (inactive)	36.1 µM (inactive)		64.1 µM (inactive)	96.2 µM (inactive)		45 µM (inactive)	64.9 µM (inactive)	20.8 µM (inactive)		62.4 µM (inactive)	33.8 µM (inactive)	45.7 µM (inactive)	> 100 µM (inactive)	82.4 µM (inactive)	> 100 µM (inactive)	97.7 µM (inactive)	> 100 µM (inactive)	59.8 µM (inactive)	
NC1=NC(=O)/C(=C/c2ccccc2[N+](=O)[O-])C(N)=N1	> 100 µM (inactive)	> 100 µM (inactive)	> 100 µM (inactive)	> 100 µM (inactive)	> 100 µM (inactive)	> 100 µM (inactive)	> 100 µM (inactive)	> 100 µM (inactive)	> 100 µM (inactive)		> 100 µM (inactive)	> 100 µM (inactive)	> 100 µM (inactive)	> 100 µM (inactive)	> 100 µM (inactive)	> 100 µM (inactive)	> 100 µM (inactive)	> 100 µM (inactive)	> 100 µM (inactive)	
Cc1cccc(NC(=O)CC(=O)N2N=C(N(CCC#N)c3ccc(Cl)cc3)CC2c2ccccc2)c1 (centres undefined)	> 100 µM (inactive)	> 100 µM (inactive)	> 100 µM (inactive)	> 100 µM (inactive)	> 100 µM (inactive)	> 100 µM (inactive)	> 100 µM (inactive)	> 100 µM (inactive)		> 100 µM (inactive)	> 100 µM (inactive)	> 100 µM (inactive)	> 100 µM (inactive)	> 100 µM (inactive)	> 100 µM (inactive)		> 100 µM (inactive)	> 100 µM (inactive)	> 100 µM (inactive)	
CCOC(=O)C(=O)Nc1ccccc1C(C)C	> 100 µM (inactive)	> 100 µM (inactive)	> 100 µM (inactive)	> 100 µM (inactive)	> 100 µM (inactive)		> 100 µM (inactive)	> 100 µM (inactive)	> 100 µM (inactive)	> 100 µM (inactive)	> 100 µM (inactive)	> 100 µM (inactive)	> 100 µM (inactive)	> 100 µM (inactive)	> 100 µM (inactive)	> 100 µM (inactive)	> 100 µM (inactive)	> 100 µM (inactive)	> 100 µM (inactive)	
O=c1c2c([nH]c3cc4c(cc13)OCO4)-c1ccccc1C2	19.4 µM (inactive)	17.7 µM (inactive)	17 µM (inactive)	19.2 µM (inactive)	17.7 µM (inactive)	15.6 µM (inactive)	22.3 µM (inactive)	29.8 µM (inactive)	15 µM (inactive)	36.2 µM (inactive)	17.1 µM (inactive)	24.8 µM (inactive)	24.2 µM (inactive)	24.4 µM (inactive)	23.2 µM (inactive)	27.2 µM (inactive)			18.6 µM (inactive)	
CC1=NN(C(=O)c2ccccc2O)C(=O)/C1=C/c1ccccc1O	0.0695 µM (active)	0.164 µM (active)	20.7 µM (inactive)		0.0577 µM (active)	0.568 µM (active)	0.209 µM (active)	0.557 µM (active)	0.931 µM (active)	0.445 µM (active)	0.057 µM (active)	0.0634 µM (active)	0.365 µM (active)	3.21 µM (inactive)	0.766 µM (active)	0.977 µM (active)	3.74 µM (inactive)	0.0968 µM (active)	2.76 µM (inactive)	0.0612 µM (active)
COC(=O)N1C=CC2=C(C)C3Nc4ccccc4C3C(C)=C2C1 (centres undefined)	0.521 µM (active)	0.726 µM (active)	1.15 µM (inactive)	0.301 µM (active)	1.47 µM (inactive)	2.23 µM (inactive)	0.256 µM (active)	0.682 µM (active)	0.804 µM (active)	1.94 µM (inactive)	1.72 µM (inactive)	1.29 µM (inactive)	2.48 µM (inactive)	1.95 µM (inactive)	3.03 µM (inactive)	1.61 µM (inactive)	2.72 µM (inactive)	2.24 µM (inactive)		
CCOc1ccccc1NC(=O)CC1SC(Nc2ccc([N+](=O)[O-])cc2)=NC1=O (centres undefined)	17.3 µM (inactive)	17.2 µM (inactive)	19.5 µM (inactive)		23.2 µM (inactive)	18.5 µM (inactive)	21.3 µM (inactive)	21.5 µM (inactive)	6.95 µM (inactive)	29.9 µM (inactive)	17.2 µM (inactive)	17.2 µM (inactive)	15.8 µM (inactive)	16.4 µM (inactive)	22.5 µM (inactive)	20.4 µM (inactive)	29.1 µM (inactive)	23.2 µM (inactive)	18.7 µM (inactive)	
